From paper PMC7332102, “Ubiquitin activation is essential for schizont maturation in Plasmodium falciparum blood-stage development” (PLoS Pathogens, 2020)

Biological target: T1, PfUBA1 (ubiquitin activating enzyme, E1; PF3D7_1225800) (Plasmodium falciparum, UniProt Q8I5F9)
T1 construct: Thr39 to Lys1140, N-terminal His10-tag, insect cells; with ubiquitin (Cy5-labelled, M1C)
Test: Cy5-ubiquitin~E1 thioesterification gel assay with recombinant PfUBA1
Assay type: biochemical

T1 sequence (Q8I5F9 entry or part of it): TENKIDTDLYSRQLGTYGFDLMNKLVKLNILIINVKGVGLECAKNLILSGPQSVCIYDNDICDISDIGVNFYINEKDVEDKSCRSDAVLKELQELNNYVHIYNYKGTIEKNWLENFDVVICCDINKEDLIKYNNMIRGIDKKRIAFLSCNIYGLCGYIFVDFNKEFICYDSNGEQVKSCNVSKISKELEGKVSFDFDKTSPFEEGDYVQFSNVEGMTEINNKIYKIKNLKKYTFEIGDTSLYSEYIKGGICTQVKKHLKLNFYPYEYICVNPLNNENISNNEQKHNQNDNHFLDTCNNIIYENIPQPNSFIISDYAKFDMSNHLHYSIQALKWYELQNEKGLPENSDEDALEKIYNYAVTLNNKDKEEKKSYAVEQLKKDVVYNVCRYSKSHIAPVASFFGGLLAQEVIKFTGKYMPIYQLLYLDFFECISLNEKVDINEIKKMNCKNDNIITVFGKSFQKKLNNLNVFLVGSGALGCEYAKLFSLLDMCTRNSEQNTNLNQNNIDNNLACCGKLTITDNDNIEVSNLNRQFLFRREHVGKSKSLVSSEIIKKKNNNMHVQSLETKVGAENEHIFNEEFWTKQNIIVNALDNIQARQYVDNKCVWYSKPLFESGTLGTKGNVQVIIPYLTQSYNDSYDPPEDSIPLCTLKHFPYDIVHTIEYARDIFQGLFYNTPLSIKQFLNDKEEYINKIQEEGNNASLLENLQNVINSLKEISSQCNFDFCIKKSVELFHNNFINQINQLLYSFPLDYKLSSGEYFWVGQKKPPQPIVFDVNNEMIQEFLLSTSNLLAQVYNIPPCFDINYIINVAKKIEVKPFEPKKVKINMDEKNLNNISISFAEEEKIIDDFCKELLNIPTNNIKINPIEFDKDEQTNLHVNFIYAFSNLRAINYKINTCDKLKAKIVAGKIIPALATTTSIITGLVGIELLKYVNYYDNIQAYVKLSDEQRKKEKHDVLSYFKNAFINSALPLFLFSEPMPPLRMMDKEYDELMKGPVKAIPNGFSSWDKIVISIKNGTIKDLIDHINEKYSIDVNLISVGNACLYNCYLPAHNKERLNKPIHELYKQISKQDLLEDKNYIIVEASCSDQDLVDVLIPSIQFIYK

Row | Structure (SMILES) | IC50
1 | NS(=O)(=O)OC[C@H]1C[C@@H](Nc2ccnc3cc(-c4cccc(SC(F)(F)F)c4)nn23)[C@H](O)[C@@H]1O [MLN7243] | 1.4 ± 0.2 µM
2 | NS(=O)(=O)OC[C@@H]1C[C@@H](n2ccc3c(N[C@H]4CCc5ccccc54)ncnc32)C[C@@H]1O [MLN4924] | 47 ± 5 µM
